Measured values reported in patent US6177475A, “Methods of using integrin modulators for treatment of inflammation” (priority 1997, dated 2001).
Where two headings read alike, the source gives them in different places.

How the values were obtained:
platelets (GP IIb/IIIa) = assay: Platelet aggregation in platelet-rich plasma (turbidimetric); type: cell-based; details: 1:1 mixture of E- and Z-stereoisomers, read-out: IC50 for inhibition of platelet aggregation in PRP
Protocol: Platelet aggregation was measured turbidimetrically on a standard platelet aggregometer equipped with a recorder. Samples of platelet-rich plasma (PRP) were standardized with respect to the cell density (3×10^8per ml); maximal light transmission (LT) was calibrated with platelet-poorplasma (PPP). Aliquots of PRP (0.25 ml in glass cuvettes) were stirred in the cell of the device (1000 rpm, 37° C.) with Ajoene (0-100 micromoles per liter final concentration) for 1 min., followed by addition of the aggregation stimuli. (Unless specified otherwise, all the experiments described in this Application were performed with Ajoene that represented a 1:1 mixture of E- and Z-stereoisomers.) LT increments were traced for 5 min. Maximal rate of aggregation was derived from the slope of each curve; IC50 for Ajoene was determined by a method such as that described in Vrzheshch, et al., Cell Response Kinetics: the Phenomenon of Supercooperativity in Aggregation of Human Platelets, 66 Thrombos. Res. 537, 1992.
The requirement of integrins for the formation of cell-to-cell contacts in each of these systems has long been established. It is known that in platelets the relevant integrin is GP IIb/IIIa (β3). […]

51Cr-labeled monocytes = assay: Monocyte recruitment to inflamed skin; type: in vivo, rat; details: 50 mg/kg i.v.; for Accumulation of 51Cr-labeled Monocytes (mean ± SEM): 2 h
Description: Chemotactic factors (e.g., C5adesArg) and cytokines, such as tumor necrosis factor α (TNF) or interferon gamma (IFN), induce rapid cutaneous inflammatory reactions, when injected intradermally. These inflammatory reactions are characterized by integrin-mediated migration of ^51 Cr-labeled monocytes and ^111 In-labeled neutrophils. The mechanisms of leukocyte recruitment to the inflammatory loci differ, however, in that chemotactic factors act primarily on leukocytes (by upregulating integrins), whereas TNF and IFN activate endothelial cells (which results, inter alia, in rapid expression of integrin ligands, such as ICAM-1 and VCAM-1).
Agents used for the induction of the inflammation included rat IFN, recombinant mouse TNF (Genentech, South San Francisco, Calif.), and Zymozan-activated serum (ZAS). ZAS, a source of C5adesArg, was generated by activating complement in normal rat serum with 5 mg/ml of Zymozan A (Sigma Chemical Company, St. Louis, Mo.) at 37° C. for 60 min, after which the zymozan was removed.
Rat monocytes and neutrophils were isolated and labeled as described in Example 6, supra. Male Lewis rats were administered intravenously with 50 mg/kg Ajoene (treatment group) or its vehicle (control), followed within 2-3 min by infusion of the labeled cells. Immediately afterwards, the skin on the back of all animals was shaved and the inflammatory stimuli and the diluent control were injected intradermally at several sites of the skin of each animal. Two hours later, 1 ml of blood was taken from each rat, and the animals were sacrificed. The dorsal skin, including the area of dermal inflammatory reactions, was removed and frozen, and the injected skin sites were punched out with a 12-mm punch and counted in a gamma spectrometer (model 1280, LXB Instruments).

[1] = system: H9RF cells / H9 cells (HIV-1RF); assay: HIV-induced syncytium formation, H9RF donor with H9 recipient; type: cell-based
Description: For curve 1, the effect of Ajoene on the fusion of cultured, intact H9 cells with HIV infected H9RF cells is disclosed. For this curve, the vertical graph axis pertains to the maximum amount of syncytia formed in the absence of Ajoene (100 percent), while the points on line 1 represent percentages of such an amount of syncytia formed in the presence of varying concentrations of Ajoene (micromoles per liter).
Chronically infected and uninfected cell lines (HIV donors and targets, respectively) were maintained as suspension cultures in RPNI-1640 medium supplemented with 10% (v/v) heat-inactivated fetal calf serum, 50 micrograms/ml gentamycin and 2 mM L-glutamine. HIV donors used were (1) a cloned population of H9 cells harboring the genome of HIV-1RF (H9RF cells); and (2) a cloned population of SupT1 cells harboring the genome of HIV-1LAV-BRU (SupT1LAV-BRU cells). To assess the effect of Ajoene on syncytium formation, the donors were mixed with their respective recipients, H9 and SupT1, at a ratio of 1:2 in 96-well flat-bottomed plates (3×10^5 cells per well). Log 10 dilutions of Ajoene were then introduced into the wells, and the cells were cocultured for 16 h. Control wells received the vehicle of Ajoene. By the end of the incubation period syncytia were counted, and the values of IC50 for Ajoene were calculated by plotting relative amounts of syncytia (percent of the syncytia formed in the absence of the compound) against Ajoene concentration.

HIV-1LAV-BRU 1 = HIV-1LAV-BRU 1 replication in CEM13 cells (HIV antigens by solid phase immunoassay); type: cell-based; details: for IC50: Human immunodeficiency virus 1, CEM13 cells
HIV-1 strain IIIB = assay: Protection of MT-4 cells against infection with free HIV (PCR for proviral DNA); type: cell-based; details: Human immunodeficiency virus 1, IIIB, MT4, 16 hours
Protocol: The effect of Ajoene in protecting against HIV infection was evaluated using polymerase chain reaction (PCR) analysis which recognized amplified DNA sequences of HIV gag gene. MT-4 cells were used as target cells and strain IIIB of HIV-1 was used as inoculate. Serial dilutions of Ajoene or an equivalent volume of its vehicle were added to MT-4 cells, followed by addition of a sufficient amount of free virus (≥10^3 particles per cell). The protective effect of Ajoene was monitored by examining for the absence or presence of proviral HIV DNA in target cells 16 hours after the inoculation.

sperm cells = type: cell-based, human; details: 200 micromoles per l
Protocol: Human sperm was from a donor with known fertility (No. 113). The sample (freshly taken) was allowed to liquefy, was diluted 3:1 with BWW/HSA, was centrifuged at 325×g for 5 minutes, and was washed once with the same medium. A small portion of the original sample was analyzed (computer-assisted sperm analysis) using the Cell-Soft package. The pellet of washed sperm cells was subjected to the swim-up procedure (1 ml of the medium was added for this purpose). The swim-up was collected (about 0.5 ml), the cells were counted (Makler chamber), and their motility determined (%). The volume of the sample was adjusted with the medium to give 10^7 cells per ml, and the samples were incubated overnight (18 hours) at 37° C. for capacitation. Thereafter, motility and cell density were determined once again, and the sample was divided into three equal portions, each to be subjected to appropriate treatment.
Equivalent volumes of ethanol and BWW/HSA were added to the two control portions of each cell type (vehicle control and untreated cells, respectively).

C=CCSSC=CC[S+]([O-])CC=C (centres unmarked) [Ajoene, 4,5,9-trithiadodeca-1,6,11-triene-9-oxide]
IC50 (platelets (GP IIb/IIIa)): ~50 µM
Accumulation of 51Cr-labeled Monocytes (mean ± SEM) (51Cr-labeled monocytes; 10 ng TNF, P < 0.002): 1,274 cpm per inflammatory locus
inhibition of monocyte migration to loci of acute cutaneous inflammation (51Cr-labeled monocytes): 50-75%
Accumulation of 51Cr-labeled Monocytes (mean ± SEM) (51Cr-labeled monocytes; 25% ZAS, P < 0.020): 944 cpm per inflammatory locus
Accumulation of 51Cr-labeled Monocytes (mean ± SEM) (51Cr-labeled monocytes; 50% ZAS, P < 0.002): 1,268 cpm per inflammatory locus
Accumulation of 51Cr-labeled Monocytes (mean ± SEM) (51Cr-labeled monocytes; 300 U IFN, P < 0.001): 468 cpm per inflammatory locus
Accumulation of 51Cr-labeled Monocytes (mean ± SEM) (51Cr-labeled monocytes; diluent control stimulus, N.S.): 15 cpm per inflammatory locus
syncytia found (FIG. 1, curve 1) ([1]; 50 micromoles of Ajoene per liter): Essentially no syncytia were found
IC50 ([1]; Human immunodeficiency virus 1, H9, 16 h incubation, both donor/recipient systems, read-out: IC50 range for fusion and syncytium formation): 0.005 to 0.05 µM
IC50 ([1]; Human immunodeficiency virus 1, H9RF donor, H9 recipient, 16 h, read-out: IC50 of Ajoene, syncytium formation): ~0.05 µM
IC50 ([1]; Human immunodeficiency virus 1, H9 with H9RF cells, read-out: IC50 of syncytium formation (FIG. 1, curve 1)): 0.045 µM
inhibition of HIV replication, stepwise addition (HIV-1LAV-BRU 1; 50 nanomoles per liter per 12 h, total 0.25 micromoles per liter, m.o.i. 0.1, 72 h): 30%
IC50 (HIV-1LAV-BRU 1; HIV-1Lav-BRU1, read-out: IC50 of HIV replication (FIG. 1, curve 2)): ~5 µM
IC50 (HIV-1LAV-BRU 1; m.o.i. 0.1, 72 h, read-out: IC50 for HIV-1LAV-BRU 1 replication): ~5 µM
IC50 (HIV-1 strain IIIB): 5 µM
IC100 (HIV-1 strain IIIB; read-out: minimal dose completely preventing HIV infection): 17 µM
toxicity or impaired cellular vitality (motility of sperm cells) (sperm cells): not associated with toxicity or impaired cellular vitality
